Structures are written as SMILES. Read-outs that look alike come from different tables or passages of the source.

We go through 2 compounds from patent US20060106099A1, “Novel inhibitors of ubiquitin isopeptidases” (priority 2002, published 2006).

The subject of data set [1] is ubiquitin isopeptidases. The data set can be described thus: Ubiquitin isopeptidase activity, Ub-PEST substrate, lysates of treated RKO and HCT 116 cells. Particulars: cells treated 6, 20 or 60 μM, 12 h. It is filed as cell-based, human. A digest of the protocol:
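RKO and HCT 116 cells (6×10^5) were treated with 0–60 μM compound for 12 h at 37 °C, then lysed in HEPES/EDTA/CHAPS/5 mM ATP, pH 7.5. Lysates at 0.3 mg/mL protein were incubated with 50 μg/mL Ub-PEST for 45 min at 25 °C. Released 8.5 kDa ubiquitin was quantified by anti-ubiquitin western blot densitometry relative to vehicle (100%).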

Data set [2] concerns HCT 116 +/+ cells. Particulars: Mullally et al., University of Utah, 2003; read-out: EC50 in competent HCT 116 cells; cited from earlier work.
The test system of data set [3] is RKO-E6 cells.
Procedure: (§2) Cell viability was measured with MTT reagent as described in materials and methods.
(§3) Cell viability was detected by the MTT assay. Briefly, 1×10^5 cells were incubated per well of a sterile, 96-well assay plate with 0-60 μM of test compounds for 48 hours. MTT reagent was added to each well, final concentration of 0.5 mg/mL, and incubated for an additional 3 hours. The media was aspirated and remaining MTT reagent from each well and added 100 μL of HCl:isopropanol (1:24). The absorbance of each sample was measured at 405 nm.
Data set [4] has as its system ubiquitin isopeptidases. As to the kind of experiment: Ubiquitin isopeptidase activity, z-LRGG-AMC substrate, lysates of treated RKO and HCT 116 cells. It is filed as cell-based, human. Particulars: cells treated 6, 20 or 60 μM, 12 h. In outline: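 RKO and HCT 116 cells were treated 12 h at 37° C with 6, 20 or 60 μM compound. Lysates at 0.5 mg/mL were pre-incubated with 30 μM MG115 (30 min, 4° C) to block proteasome, then given z-LRGG-AMC for 3 h at 37° C. Cleaved AMC was read fluorometrically.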

For the next data set, the system named is p53. The data set can be described thus: p53 accumulation, ratio RKO-E6 cells/RKO cells (immunoblot, densitometry). The settings on record: 6 h; etoposide 50 μM, MG115, NSC-302979, DBA 20 μM, others 60 μM. It is filed as cell-based, human. A digest of the protocol:
(§1)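 RKO-E6 cells exposed at 37° C for 6, 12 or 24 h to compound concentrations giving 80% cell death at 48 h; for p53, RKO and RKO-E6 cells treated 6 h. Lysates (12.5 μg protein) immunoblotted for ubiquitin or p53 with ECL detection; p53 quantified by densitometry as RKO-E6/RKO ratio.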
On the technique in general: In western blotting, separated proteins are transferred to a membrane and probed.

For data set [5], the system named is RKO-E6 cells. The data set can be described thus: MTT cell viability assay, RKO-E6 cells. The settings on record: cell viability assay at 48 h, RKO-E6 cells.
Procedure: as §2, §3
Data set [6] relates to HCT 116 +/+ cells. As to the kind of experiment: MTT cell viability assay, HCT 116 p53 +/+ cells. Particulars: 48 h, MTT; for cell death in HCT 116 +/+ compared with HCT 116 −/− cells: isogenic pair. (In general: Formazan colour is commonly taken as a measure of viable cells.)
Data set [7] relates to polyubiquitin conjugates in RKO-E6 cells. The data set can be described thus: Accumulation of polyubiquitin in RKO-E6 cells (immunoblot). The data set is classed as cell-based, human. Particulars: EC80 or 60 μM, 6-24 h. In outline: as §1
Data set [8] deals with ubiquitin isopeptidases. Particulars: cells treated for 12 h; cited from earlier work.
For a further data set, the system named is RKO cells. The data set can be described thus: MTT cell viability assay, RKO cells. The settings on record: for cell death in RKO compared with RKO-E6 cells: 48 h, MTT, isogenic pair.

Procedure for HCT 116 −/− cells: as §2, §3

With `CCCCC[C@H](O)C/C=C1/C(=O)C=C[C@@H]1C/C=C\CCCC(=O)O` [Δ12-PGJ2, Δ12-prostaglandin J2], the “inhibition of isopeptidase cleavage of Ub-PEST” value with ubiquitin isopeptidases [1] is “inhibited isopeptidase activity in a concentration dependent manner”. Further, the EC50 is 3.6 µM in the data set on HCT 116 +/+ cells [2]; 9.2 ± 1 µM in the data set with RKO-E6 cells [3]; 4.1 ± 0.1 µM in the data set on HCT 116 −/− cells; 9 µM in the data set with RKO cells (read-out: EC50 in RKO cell lines, prostaglandins for comparison, comparison values in the text). For the same compound, in the data set on ubiquitin isopeptidases [4], the “inhibition of z-LRGG-AMC hydrolysis by ubiquitin isopeptidases” value is listed as “inhibited ubiquitin isopeptidase activity”. For the same compound, the “ratio of p53 protein [RKO-E6 cells/RKO cells]” value with p53 is on record as “approached unity”. Further, the “EC80, concentration that gave 80% cell death” value in the data set with RKO-E6 cells [5] came out at 13.2 µM. The “cell death in HCT 116 +/+ compared with HCT 116 −/− cells” value in the data set with HCT 116 +/+ cells [6] is “caused cell death with equal potency”. Besides, in data set [7], the “cellular accumulation of polyubiquitin conjugates” value was “protein species with polyubiquitin conjugation accumulated in cells”. Besides, in the data set with ubiquitin isopeptidases [8], the “concentration showing inhibition of Ub-PEST degradation, previous in vivo studies” value was 60 µM. Also, the “cell death in RKO compared with RKO-E6 cells” value with RKO cells is “caused cell death with equal potency and efficacy”.

In the case of `C=C1C(=O)C2=CC1CCC(=O)C1(C)CCC(OC(C)=O)C(C)(C)C1CC2O` (stereo not drawn) [NSC-302979, shikoccin], the “inhibition of isopeptidase cleavage of Ub-PEST” value in the data set on ubiquitin isopeptidases [1] was “inhibited isopeptidase activity in a concentration dependent manner”. Also, the EC50 worked out at 1.4 ± 0.1 µM in the data set with RKO-E6 cells [3] and 2.7 ± 0.2 µM with HCT 116 +/+ cells [6] (read-out: Cytotoxic Potency (EC50) HCT +/+). In the data set on ubiquitin isopeptidases [4], the “inhibition of z-LRGG-AMC hydrolysis by ubiquitin isopeptidases” value was “inhibited ubiquitin isopeptidase activity”. The “ratio of p53 protein [RKO-E6 cells/RKO cells]” value with p53 is “approached unity”. The “EC80, concentration that gave 80% cell death” value with RKO-E6 cells [5] was 3.5 µM. The “cell death in HCT 116 +/+ compared with HCT 116 −/− cells” value in the data set on HCT 116 +/+ cells [6] is listed as “caused cell death with equal potency”. The “cellular accumulation of polyubiquitin conjugates” value in data set [7] was “protein species with polyubiquitin conjugation accumulated in cells”. In addition, the “cell death in RKO compared with RKO-E6 cells” value with RKO cells was “caused cell death with equal potency and efficacy”.
